From patent US20110184188A1, “Insecticidal Benzenedicarboxamide Derivative” (priority 2008, published 2011)

assay: logP(acid) by reverse phase (C18) chromatography at pH 2.3; assay type: physicochemical; conditions: reverse phase (C18) chromatography at pH 2.3

Row | SMILES | logP (acid)
1 | Cc1nc(Cn2nc(C(F)F)c(Cl)c2C(F)F)ccc1NC(=O)c1cccc(Cl)c1C(=O)NC(C)C[S+](C)[O-] (mixture of isomers) [13-58] | 2.13
2 | Cc1cc(Cn2nc(C(F)(F)F)cc2C(F)(F)F)ncc1NC(=O)c1cccc(I)c1C(=O)NC(C)C[S+](C)[O-] (mixture of isomers) [13-182] | logP (acid) 2.3
3 | Cc1nc(Cn2nc(C(F)(F)C(F)(F)F)cc2C(F)(F)F)ccc1NC(=O)c1cccc(Br)c1C(=O)NC(C)C[S+](C)[O-] (mixture of isomers) [13-188] | logP (acid) 2.81
4 | Cc1nc(Cn2nc(C(F)(F)C(F)(F)F)cc2C(F)(F)F)ccc1NC(=O)c1cccc(I)c1C(=O)NC(C)C[S+](C)[O-] (mixture of isomers) [13-190] | logP (acid) 2.76
5 | CSC[C@H](C)NC(=O)c1c(Cl)cc(Cl)cc1C(=O)Nc1ccc(Cn2nc(C(F)(F)F)cc2C(F)(F)F)nc1C [10-1] | logP (acid) 4.18
6 | Cc1nc(Cn2nc(C(F)(F)F)cc2C(F)(F)F)ccc1NC(=O)c1cc(Cl)cc(Cl)c1C(=O)N[C@@H](C)C[S+](C)[O-] (stereo partly drawn) [10-2] | logP (acid) 2.83
7 | CSC[C@H](C)NC(=O)c1c(Cl)cc(Cl)cc1C(=O)Nc1ccc(Cn2nc(C(F)(F)C(F)(F)F)nc2C(F)(F)F)cc1C [10-10] | logP (acid) 4.64
8 | Cc1cc(Cn2nc(C(F)(F)C(F)(F)F)nc2C(F)(F)F)ccc1NC(=O)c1cc(Cl)cc(Cl)c1C(=O)N[C@@H](C)C[S+](C)[O-] (stereo partly drawn) [10-11] | logP (acid) 3.28
9 | Cc1cc(Cn2nc(C(F)(F)C(F)(F)F)nc2C(F)(F)F)ccc1NC(=O)c1cc(Cl)cc(Cl)c1C(=O)N[C@@H](C)CS(C)(=O)=O [10-12] | logP (acid) 3.61
10 | Cc1cc(Cn2nc(C(F)(F)C(F)(F)F)nc2C(F)(F)F)ccc1NC(=O)c1cc(F)cc(Cl)c1C(=O)N[C@@H](C)C[S+](C)[O-] (stereo partly drawn) [10-14] | logP (acid) 3.00
11 | Cc1cc(Cn2nc(C(F)(F)C(F)(F)F)nc2C(F)(F)F)ccc1NC(=O)c1cc(F)cc(Cl)c1C(=O)N[C@@H](C)CS(C)(=O)=O [10-15] | logP (acid) 3.37
12 | CSC[C@H](C)NC(=O)c1c(I)ccc(F)c1C(=O)Nc1ccc(Cn2nc(C(F)(F)F)cc2C(F)(F)F)nc1C [11-1] | logP (acid) 3.72
13 | CSCC(C)NC(=O)c1c(Cl)ccc(Cl)c1C(=O)Nc1ccc(Cn2nc(C(F)(F)F)cc2C(F)(F)F)nc1C (stereo not drawn) [11-4] | logP (acid) 4.14
14 | Cc1nc(Cn2nc(C(F)(F)F)cc2C(F)(F)F)ccc1NC(=O)c1c(Cl)ccc(Cl)c1C(=O)N[C@@H](C)C[S+](C)[O-] (stereo partly drawn) [11-5] | logP (acid) 2.65
15 | Cc1nc(Cn2nc(C(F)(F)F)cc2C(F)(F)F)ccc1NC(=O)c1c(Cl)ccc(Cl)c1C(=O)N[C@@H](C)CS(C)(=O)=O [11-6] | logP (acid) 3.05
16 | CSC[C@H](C)NC(=O)c1c(Cl)ccc(Br)c1C(=O)Nc1ccc(Cn2nc(C(F)(F)F)cc2C(F)(F)F)nc1C [11-13] | logP (acid) 3.89
17 | Cc1nc(Cn2nc(C(F)(F)F)cc2C(F)(F)F)ccc1NC(=O)c1c(Br)ccc(Cl)c1C(=O)N[C@@H](C)C[S+](C)[O-] (stereo partly drawn) [11-14] | logP (acid) 2.68
18 | Cc1nc(Cn2nc(C(F)(F)F)cc2C(F)(F)F)ccc1NC(=O)c1c(Br)ccc(Cl)c1C(=O)N[C@@H](C)CS(C)(=O)=O [11-15] | logP (acid) 3.05
19 | COc1ccc(Br)c(C(=O)Nc2ccc(Cn3nc(C(F)(F)F)cc3C(F)(F)F)nc2C)c1C(=O)N[C@@H](C)CSC [11-16] | logP (acid) 3.63

same assay, conditions: reverse phase (C18) chromatography at pH2.3, 0.1% phosphoric acid aqueous solution / acetonitrile gradient

Row | SMILES | logP (acid)
20 | CSC[C@H](C)NC(=O)c1c(Cl)cccc1C(=O)Nc1cc(F)c(Cn2nc(C(F)(F)F)cc2C(F)(F)F)nc1C [7-150] | logP (acid) 4.13

same assay, conditions: reverse phase (C18) chromatography at pH2.3, 0.1% phosphoric acid aqueous solution / acetonitrile, linear gradient 10-95%

Row | SMILES | logP (acid)
21 | CNC(=O)c1cc(Cl)cc(Cl)c1C(=O)Nc1cc(Cl)cc(Cn2nc(C(F)(F)F)nc2C(F)(F)F)c1 [4-1] | logP (acid) 3.32
22 | CSC[C@H](C)NC(=O)c1c(Cl)cccc1C(=O)Nc1cccc(Cn2cc(C(F)(F)C(F)(F)F)c(C(F)(F)C(F)(F)F)n2)c1C [4-6] | logP (acid) 4.52
23 | CSC[C@H](C)NC(=O)c1c(Cl)cccc1C(=O)Nc1cccc(Cn2nc(C(F)(F)C(F)(F)F)nc2-c2ccc(Cl)cc2)c1C [4-9] | logP (acid) 4.32
24 | CSC[C@H](C)NC(=O)c1c(Cl)cccc1C(=O)Nc1cccc(Cn2nc(C(F)(F)C(F)(F)F)nc2-c2ccc(C(F)(F)F)cc2)c1C [4-10] | logP (acid) 4.44
25 | CSC[C@H](C)NC(=O)c1c(Cl)cccc1C(=O)Nc1cccc(Cn2nc(C(F)(F)C(F)(F)F)nc2-c2ccc(Cl)nc2)c1C [4-11] | logP (acid) 3.8
26 | CSC[C@H](C)NC(=O)c1c(Cl)cccc1C(=O)Nc1cccc(Cn2nnc(-c3ccc(C(F)(F)F)cc3)n2)c1 [4-16] | logP (acid) 3.86

same assay, conditions: reverse phase (C18) chromatography at pH2.3, 0.1% phosphoric acid aqueous solution / acetonitrile, linear gradient 10-95% acetonitrile

Row | SMILES | logP (acid)
27 | Cc1cc(Cn2nc(C(F)(F)F)nc2C(F)(F)F)c(F)cc1NC(=O)c1cccc(Cl)c1C(=O)N[C@@H](C)C[S+](C)[O-] (stereo partly drawn) [7-8] | logP (acid) 2.63
28 | Cc1cc(Cn2nc(C(F)(F)F)nc2C(F)(F)F)c(F)cc1NC(=O)c1cccc(Cl)c1C(=O)N[C@@H](C)CS(C)(=O)=O [7-9] | logP (acid) 3.02
29 | CSC[C@H](C)NC(=O)c1c(Br)cccc1C(=O)Nc1cc(F)c(Cn2nc(C(F)(F)F)cc2C(F)(F)F)cc1C [7-10] | logP (acid) 4.37
30 | CSC[C@H](C)NC(=O)c1c(Br)cccc1C(=O)Nc1cc(F)c(Cn2nc(C(F)(F)F)nc2C(F)(F)F)cc1C [7-13] | logP (acid) 4.07
31 | Cc1cc(Cn2nc(C(F)(F)F)nc2C(F)(F)F)c(F)cc1NC(=O)c1cccc(Br)c1C(=O)N[C@@H](C)C[S+](C)[O-] (stereo partly drawn) [7-14] | logP (acid) 2.68
32 | Cc1cc(Cn2nc(C(F)(F)F)nc2C(F)(F)F)c(F)cc1NC(=O)c1cccc(Br)c1C(=O)N[C@@H](C)CS(C)(=O)=O [7-15] | logP (acid) 3.08
33 | CSC[C@H](C)NC(=O)c1c(SC)cccc1C(=O)Nc1cc(F)c(Cn2nc(C(F)(F)F)nc2C(F)(F)F)cc1C [7-23] | logP (acid) 3.96

same assay, conditions: reverse phase (C18) chromatography, pH 2.3

Row | SMILES | logP (acid)
34 | CSCC(C)NC(=O)c1c(Cl)cccc1C(=O)Nc1ccc(Cn2cc(C3=NOC(c4cc(Cl)cc(Cl)c4)(C(F)(F)F)C3)c(C(F)(F)F)n2)cc1C (mixture of isomers) [13-201] | logP (acid) 3.43
35 | CSCC(C)NC(=O)c1c(Cl)cccc1C(=O)Nc1ccc(C(O)c2cc(C(F)(F)C(F)(F)F)n[nH]2)cc1C (mixture of isomers) [13-231] | logP (acid) 2.76
36 | Cc1nc(Cn2nc(C(F)(F)F)cc2C(F)(F)F)ccc1NC(=O)c1cccc(S(=O)(=O)N(C)C)c1C(=O)NC(C)C[S+](C)[O-] (mixture of isomers) [13-288] | logP (acid) 2.37
37 | CSCC(C)NC(=O)c1c(SC)cccc1C(=O)Nc1ccc(C(O)c2cc(C(F)(F)C(F)(F)F)n[nH]2)cc1C (mixture of isomers) [13-340] | logP (acid) 2.77
38 | CSCC(C)NC(=O)c1c(C(=O)Nc2ccc(C(O)c3cc(C(F)(F)C(F)(F)F)n[nH]3)cc2C)cccc1S(C)(=O)=O (mixture of isomers) [13-341] | logP (acid) 2.02

same assay, conditions: reverse phase (C18) chromatography, pH2.3, 0.1% phosphoric acid / acetonitrile gradient 10-95%

Row | SMILES | logP (acid)
39 | CNC(=O)c1cc(Cl)cc(Cl)c1C(=O)Nc1cc(Cl)ccc1Cn1nc(C(F)(F)F)nc1C(F)(F)F [3-2] | logP (acid) 3.84
40 | CSC[C@H](C)NC(=O)c1c(Cl)cccc1C(=O)Nc1cc(F)c(C)nc1Cn1nc(C(F)(F)F)cc1C(F)(F)F [3-7] | logP (acid) 4.28
41 | CSC[C@H](C)NC(=O)c1c(Cl)cccc1C(=O)Nc1cc(F)c(C)cc1Cn1nc(C(F)(F)F)nc1C(F)(F)F [3-8] | logP (acid) 4.13

same assay, conditions: reverse phase (C18) chromatography, pH2.3, 0.1% phosphoric acid aqueous solution / acetonitrile, linear gradient 10-95% acetonitrile

Row | SMILES | logP (acid)
42 | Cc1nc(Cn2nc(C(F)(F)F)cc2C(F)(F)F)ccc1NC(=O)c1ccc(F)c(Br)c1C(=O)N[C@@H](C)C[S+](C)[O-] (stereo partly drawn) [9-11] | logP (acid) 2.51
43 | CSC[C@H](C)NC(=O)c1c(C(=O)Nc2ccc(Cn3nc(C(F)(F)C(F)(F)F)nc3C(F)(F)F)cc2C)ccc(F)c1Br [9-12] | logP (acid) 4.29
44 | Cc1cc(Cn2nc(C(F)(F)C(F)(F)F)nc2C(F)(F)F)ccc1NC(=O)c1ccc(F)c(Br)c1C(=O)N[C@@H](C)C[S+](C)[O-] (stereo partly drawn) [9-13] | logP (acid) 2.96
45 | CSC[C@H](C)NC(=O)c1c(C(=O)Nc2ccc(Cn3nc(C(F)(F)F)cc3C(F)(F)F)cc2C)ccc(C(F)(F)F)c1Cl [9-14] | logP (acid) 4.62
46 | CSC[C@H](C)NC(=O)c1c(C(=O)Nc2ccc(Cn3nc(C(F)(F)C(F)(F)F)nc3C(F)(F)F)cc2C)ccc([N+](=O)[O-])c1Cl [9-15] | logP (acid) 4.27
47 | Cc1cc(Cn2nc(C(F)(F)F)cc2C(F)(F)F)ccc1NC(=O)c1ccc(C(F)(F)F)c(Cl)c1C(=O)N[C@@H](C)CS(C)(=O)=O [9-17] | logP (acid) 3.22
48 | CSC[C@H](C)NC(=O)c1c(C(=O)Nc2ccc(Cn3nc(C(F)(F)F)nc3C(F)(F)F)cc2C)ccc(C(F)(F)F)c1Cl [9-18] | logP (acid) 4.30
49 | Cc1cc(Cn2nc(C(F)(F)F)nc2C(F)(F)F)ccc1NC(=O)c1ccc(C(F)(F)F)c(Cl)c1C(=O)N[C@@H](C)C[S+](C)[O-] (stereo partly drawn) [9-19] | logP (acid) 2.98
50 | Cc1nc(Cn2nc(C(F)(F)F)cc2C(F)(F)F)ccc1NC(=O)c1ccc(F)c(Br)c1C(=O)N[C@@H](C)CS(C)(=O)=O [9-21] | logP (acid) 3.27
51 | Cc1cc(Cn2nc(C(F)(F)C(F)(F)F)nc2C(F)(F)F)ccc1NC(=O)c1ccc(F)c(Br)c1C(=O)N[C@@H](C)CS(C)(=O)=O [9-22] | logP (acid) 3.36
52 | CSC[C@H](C)NC(=O)c1c(C(=O)Nc2ccc(Cn3nc(C(F)(F)C(F)(F)F)nc3C(F)(F)F)cc2C)ccc(C(F)(F)F)c1Cl [9-23] | logP (acid) 4.63
53 | Cc1cc(Cn2nc(C(F)(F)C(F)(F)F)nc2C(F)(F)F)ccc1NC(=O)c1ccc(C(F)(F)F)c(Cl)c1C(=O)N[C@@H](C)CS(C)(=O)=O [9-25] | logP (acid) 3.70
54 | CSC[C@H](C)NC(=O)c1c(C(=O)Nc2ccc(Cn3nc(C(F)(F)F)cc3C(F)(F)F)nc2C)ccc(C(F)(F)F)c1Cl [9-26] | logP (acid) 4.25
